One assay deals with T1, plasma kallikrein (Homo sapiens, UniProt P03952).
T1 construct: from tissue
As to the kind of experiment: Neat human plasma assay, FXIIa contact pathway-activated, PFR-AMC substrate. The settings on record: citrated human plasma 78% final, 10 nM human FXIIa, 100 μM PFR-AMC; read-out: Human Plasma Assay: IC90. The assay is classed as biochemical. The gist of the method:
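Citrated human plasma (78% final) with compound, contact-activated by 10 nM human FXIIa in pKal buffer pH 7.5, with 100 μM PFR-AMC. Fluorescence (360/480 nm) followed 5 min at room temperature; rates versus concentration fitted by 4-parameter equation for IC50/IC90.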

The target of assay [1] is human activated kallikrein enzyme (Homo sapiens, UniProt P03952). As to the kind of experiment: Plasma kallikrein inhibition, fluorogenic PFR-AMC substrate, 500 pM activated kallikrein format. The assay is classed as biochemical. Particulars: 500 pM activated kallikrein, 300 uM PFR-AMC, 30 min preincubation, 10 min reaction; read-out: Primary Dose Response Assay: Average EC50. In a few lines: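 Enzyme at 500 pM preincubated 30 min RT with inhibitors in 20 mM Tris pH 7.5, 1 mM EDTA, 150 mM NaCl, 0.1% PEG-400, 0.1% Triton X-100. Reaction started with 300 uM PFR-AMC, run 10 min RT; fluorescence read at 460 nm emission, 380 nm excitation. EC50 reported in ranges.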
Sequence of human activated kallikrein enzyme (P03952 391-638 limits assumed): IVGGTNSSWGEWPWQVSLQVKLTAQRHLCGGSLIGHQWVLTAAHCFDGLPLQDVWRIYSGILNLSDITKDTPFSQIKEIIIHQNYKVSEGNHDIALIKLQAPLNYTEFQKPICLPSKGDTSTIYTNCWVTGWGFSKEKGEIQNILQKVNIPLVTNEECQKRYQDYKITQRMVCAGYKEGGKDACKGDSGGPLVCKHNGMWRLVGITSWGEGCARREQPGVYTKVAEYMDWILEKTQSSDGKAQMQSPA
Sequence of human activated kallikrein enzyme (P03952 20-390 partner limits assumed): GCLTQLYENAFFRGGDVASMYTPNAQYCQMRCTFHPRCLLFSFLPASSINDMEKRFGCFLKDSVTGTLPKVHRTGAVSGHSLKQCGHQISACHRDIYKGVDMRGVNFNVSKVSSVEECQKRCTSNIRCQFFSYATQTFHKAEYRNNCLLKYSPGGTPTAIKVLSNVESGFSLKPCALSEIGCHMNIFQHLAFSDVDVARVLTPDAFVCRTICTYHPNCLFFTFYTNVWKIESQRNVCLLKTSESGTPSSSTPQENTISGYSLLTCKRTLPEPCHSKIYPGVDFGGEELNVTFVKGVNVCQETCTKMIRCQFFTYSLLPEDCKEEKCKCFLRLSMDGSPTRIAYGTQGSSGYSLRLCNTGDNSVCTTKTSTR

T1 sequence (P03952 391-638 limits assumed): as the sequence (P03952 391-638 limits assumed) above
T1 sequence (P03952 20-390 partner limits assumed): as the sequence (P03952 20-390 partner limits assumed) above

The IC90 is the concentration needed for an effect of 90%. Usually EC50 stands for the concentration giving half of the maximal effect. Consider `Cc1ccnc([C@@]2(F)C[C@@H]2C(=O)Nc2cc(N(C)Cc3cn4cc(C5CC5)cc(N5CC(=O)N(C)C5=O)c4n3)nc(C)n2)n1` (racemic) [Example 490, rac-(1S*,2S*)-N-(6-(((6-cyclopropyl-8-(3-methyl-2,4-dioxoimidazolidin-1-yl)imidazo[1,2-a]pyridin-2-yl)methyl)(methyl)amino)-2-methylpyrimidin-4-yl)-2-fluoro-2-(4-methylpyrimidin-2-yl)cyclopropane-1-carboxamide], for which the concentration for an effect of 90% (IC90) at plasma kallikrein is 400 to 1500 nM. Moreover, the half-maximal effective concentration (EC50) in assay [1] was below 1 nM.

As to `Cc1nc([C@H]2C[C@@H]2C(=O)Nc2cc(NCc3cn4cc(C5CC5)cc(N5CC(=O)N(C)C5=O)c4n3)ncn2)cs1` (racemic) [Example 493, rac-(1S*,2S*)-N-(6-(((6-cyclopropyl-8-(3-methyl-2,4-dioxoimidazolidin-1-yl)imidazo[1,2-a]pyridin-2-yl)methyl)amino)pyrimidin-4-yl)-2-(2-methylthiazol-4-yl)cyclopropane-1-carboxamide], at plasma kallikrein, the IC90 lay in the range of 400 to 1500 nM. In addition, the EC50 in assay [1] was 1 to 10 nM.

Consider `Cc1ccnc([C@@H]2[C@@H](C(=O)Nc3cc(NCc4cn5cc(C6CC6)cc(N6CC(=O)N(C)C6=O)c5n4)ncn3)C2(F)F)n1` (racemic) [Example 494, rac-(1S*,3S*)-N-(6-(((6-cyclopropyl-8-(3-methyl-2,4-dioxoimidazolidin-1-yl)imidazo[1,2-a]pyridin-2-yl)methyl)amino)pyrimidin-4-yl)-2,2-difluoro-3-(4-methylpyrimidin-2-yl)cyclopropane-1-carboxamide], for which the IC90 on plasma kallikrein was below 400 nM. In addition, the concentration for a half-maximal effect (EC50) in assay [1] was below 1 nM.

On to `Cc1ncnc([C@H]2C[C@@H]2C(=O)Nc2cc(NCc3cn4cc(C5CC5)cc(N5CC(=O)N(C)C5=O)c4n3)ncn2)n1` (racemic) [Example 495, rac-(1S*,2S*)-N-(6-(((6-cyclopropyl-8-(3-methyl-2,4-dioxoimidazolidin-1-yl)imidazo[1,2-a]pyridin-2-yl)methyl)amino)pyrimidin-4-yl)-2-(4-methyl-1,3,5-triazin-2-yl)cyclopropane-1-carboxamide], for which the IC90 on plasma kallikrein is 400 to 1500 nM. Also, in assay [1], the EC50 is 1 to 10 nM.

As to `Cc1ccnc([C@@]2(F)C[C@@H]2C(=O)Nc2cc(NCc3cn4cc(C5CC5)cc(N5CC(=O)N(C)C5=O)c4n3)ncn2)n1` (racemic) [Example 496, rac-(1S*,2S*)-N-(6-(((6-cyclopropyl-8-(3-methyl-2,4-dioxoimidazolidin-1-yl)imidazo[1,2-a]pyridin-2-yl)methyl)amino)pyrimidin-4-yl)-2-fluoro-2-(4-methylpyrimidin-2-yl)cyclopropane-1-carboxamide], on plasma kallikrein, the IC90 was below 400 nM. For the same compound, the EC50 in assay [1] is below 1 nM.

With `Cc1cc(C)nc([C@H]2C[C@@H]2C(=O)Nc2cc(NCc3cn4cc(C5CC5)cc(N5CC(=O)N(C)C5=O)c4n3)ncn2)n1` (racemic) [Example 497, rac-(1S*,2S*)-N-(6-(((6-cyclopropyl-8-(3-methyl-2,4-dioxoimidazolidin-1-yl)imidazo[1,2-a]pyridin-2-yl)methyl)amino)pyrimidin-4-yl)-2-(4,6-dimethylpyrimidin-2-yl)cyclopropane-1-carboxamide], on plasma kallikrein, the concentration for an effect of 90% (IC90) lay in the range of 400 to 1500 nM. The EC50 in assay [1] is below 1 nM.

As for `Cc1cncc([C@H]2C[C@@H]2C(=O)Nc2cc(NCc3cn4cc(C5CC5)cc(N5CC(=O)N(C)C5=O)c4n3)ncn2)n1` (racemic) [Example 498, rac-(1S*,2S*)-N-(6-(((6-cyclopropyl-8-(3-methyl-2,4-dioxoimidazolidin-1-yl)imidazo[1,2-a]pyridin-2-yl)methyl)amino)pyrimidin-4-yl)-2-(6-methylpyrazin-2-yl)cyclopropane-1-carboxamide], the IC90 at plasma kallikrein was 400 to 1500 nM. In addition, the EC50 in assay [1] was below 1 nM.

For the compound `Cc1nccc([C@H]2C[C@@H]2C(=O)Nc2cc(NCc3cn4cc(C5CC5)cc(N5CC(=O)N(C)C5=O)c4n3)ncn2)n1` (racemic) [Example 499, rac-(1S*,2S*)-N-(6-(((6-cyclopropyl-8-(3-methyl-2,4-dioxoimidazolidin-1-yl)imidazo[1,2-a]pyridin-2-yl)methyl)amino)pyrimidin-4-yl)-2-(2-methylpyrimidin-4-yl)cyclopropane-1-carboxamide], the IC90 at plasma kallikrein was 400 to 1500 nM. In assay [1], the half-maximal effective concentration (EC50) fell in the range of 1 to 10 nM.

As for `Cc1cccc([C@H]2C[C@@H]2C(=O)Nc2cc(NCc3cn4cc(C5CC5)cc(N5CC(=O)N(C)C5=O)c4n3)ncn2)n1` (racemic) [Example 500, rac-(1S*,2S*)-N-(6-(((6-cyclopropyl-8-(3-methyl-2,4-dioxoimidazolidin-1-yl)imidazo[1,2-a]pyridin-2-yl)methyl)amino)pyrimidin-4-yl)-2-(6-methylpyridin-2-yl)cyclopropane-1-carboxamide], the concentration for an effect of 90% (IC90) at plasma kallikrein lay within 400 to 1500 nM. In addition, the concentration for a half-maximal effect (EC50) in assay [1] is below 1 nM.

Turning to `Cc1ccnc([C@H]2C[C@@H]2C(=O)Nc2cc(NCc3cn4cc(C5CC5)cc(N5CC(=O)N(C)C5=O)c4n3)nc(C(F)(F)F)n2)n1` (racemic) [Example 501, rac-(1S*,2S*)-N-(6-(((6-cyclopropyl-8-(3-methyl-2,4-dioxoimidazolidin-1-yl)imidazo[1,2-a]pyridin-2-yl)methyl)amino)-2-(trifluoromethyl)pyrimidin-4-yl)-2-(4-methylpyrimidin-2-yl)cyclopropane-1-carboxamide], the IC90 on plasma kallikrein lay within 400 to 1500 nM. In addition, the EC50 in assay [1] is below 1 nM.

Consider `Cc1ccc(F)c([C@H]2C[C@@H]2C(=O)Nc2cc(NCc3cn4cc(C5CC5)cc(N5CC(=O)N(C)C5=O)c4n3)ncn2)n1` (racemic) [Example 502, rac-(1S*,2S*)-N-(6-(((6-cyclopropyl-8-(3-methyl-2,4-dioxoimidazolidin-1-yl)imidazo[1,2-a]pyridin-2-yl)methyl)amino)pyrimidin-4-yl)-2-(3-fluoro-6-methylpyridin-2-yl)cyclopropane-1-carboxamide], for which, at plasma kallikrein, the concentration for an effect of 90% (IC90) lay within 400 to 1500 nM. Also, the EC50 in assay [1] is below 1 nM.

Consider `Cc1ccnc([C@H]2C[C@@H]2C(=O)Nc2ncc(F)c(NCc3cn4cc(C5CC5)cc(N5CC(=O)N(CCOCc6ccccc6)C5=O)c4n3)n2)n1` (racemic) [Example 515, rac-(1S*,2S*)-N-(4-(((8-(3-(2-(benzyloxy)ethyl)-2,4-dioxoimidazolidin-1-yl)-6-cyclopropylimidazo[1,2-a]pyridin-2-yl)methyl)amino)-5-fluoropyrimidin-2-yl)-2-(4-methylpyrimidin-2-yl)cyclopropane-1-carboxamide], for which, on plasma kallikrein, the IC90 fell in the range of 400 to 1500 nM. Moreover, the EC50 in assay [1] was below 1 nM.

Turning to `Cc1ccnc([C@H]2C[C@@H]2C(=O)Nc2ncc(F)c(N(C)Cc3cn4cc(C5CC5)cc(N5CC(=O)NC5=O)c4n3)n2)n1` (racemic) [Example 516, rac-(1S*,2S*)-N-(4-(((6-cyclopropyl-8-(2,4-dioxoimidazolidin-1-yl)imidazo[1,2-a]pyridin-2-yl)methyl)(methyl)amino)-5-fluoropyrimidin-2-yl)-2-(4-methylpyrimidin-2-yl)cyclopropane-1-carboxamide], the IC90 on plasma kallikrein is below 400 nM. The 50% effective concentration (EC50) in assay [1] is below 1 nM.

Take `Cc1ccnc([C@H]2C[C@@H]2C(=O)Nc2ncc(F)c(NCc3cn4cc(C5CC5)cc(N5CC(=O)N(C)C5=O)c4n3)n2)n1` (racemic) [Example 517, rac-(1S*,2S*)-N-(4-(((6-cyclopropyl-8-(3-methyl-2,4-dioxoimidazolidin-1-yl)imidazo[1,2-a]pyridin-2-yl)methyl)amino)-5-fluoropyrimidin-2-yl)-2-(4-methylpyrimidin-2-yl)cyclopropane-1-carboxamide]: the 90% effect concentration (IC90) on plasma kallikrein was below 400 nM. In addition, the EC50 in assay [1] was below 1 nM.

Consider `Cc1ccnc([C@H]2C[C@@H]2C(=O)Nc2ncc(C(F)(F)F)c(NCc3cn4cc(C5CC5)cc(N5CC(=O)N(C)C5=O)c4n3)n2)n1` (racemic) [Example 518, rac-(1S*,2S*)-N-(4-(((6-cyclopropyl-8-(3-methyl-2,4-dioxoimidazolidin-1-yl)imidazo[1,2-a]pyridin-2-yl)methyl)amino)-5-(trifluoromethyl)pyrimidin-2-yl)-2-(4-methylpyrimidin-2-yl)cyclopropane-1-carboxamide], for which the 90% effect concentration (IC90) at plasma kallikrein was below 400 nM. For the same compound, the EC50 in assay [1] is below 1 nM.

As to `Cc1cc(NCc2cn3cc(C4CC4)cc(N4CC(=O)N(C)C4=O)c3n2)nc(NC(=O)[C@H]2C[C@@H]2c2nccc(C)n2)n1` (racemic) [Example 519, rac-(1S*,2S*)-N-(4-(((6-cyclopropyl-8-(3-methyl-2,4-dioxoimidazolidin-1-yl)imidazo[1,2-a]pyridin-2-yl)methyl)amino)-6-methylpyrimidin-2-yl)-2-(4-methylpyrimidin-2-yl)cyclopropane-1-carboxamide], the 90% effect concentration (IC90) at plasma kallikrein was below 400 nM. Besides, the EC50 in assay [1] is below 1 nM.

`Cc1ccnc([C@H]2C[C@@H]2C(=O)Nc2nccc(NCc3cn4cc(C5CC5)cc(N5CC(=O)N(C)C5=O)c4n3)n2)n1` (racemic) [Example 520, rac-(1S*,2S*)-N-(4-(((6-cyclopropyl-8-(3-methyl-2,4-dioxoimidazolidin-1-yl)imidazo[1,2-a]pyridin-2-yl)methyl)amino)pyrimidin-2-yl)-2-(4-methylpyrimidin-2-yl)cyclopropane-1-carboxamide]: the 90% effect concentration (IC90) on plasma kallikrein is below 400 nM. Further, in assay [1], the EC50 is below 1 nM.

Take `O=C1CN(c2cc(C3CC3)cn3cc(CNc4ccnc(NC(=O)[C@H]5C[C@@H]5c5cc(Cl)ccn5)n4)nc23)C(=O)N1` (racemic) [Example 521, rac-(1S*,2S*)-2-(4-chloropyridin-2-yl)-N-(4-(((6-cyclopropyl-8-(2,4-dioxoimidazolidin-1-yl)imidazo[1,2-a]pyridin-2-yl)methyl)amino)pyrimidin-2-yl)cyclopropane-1-carboxamide]: the concentration for an effect of 90% (IC90) at plasma kallikrein was in the range of 400 to 1500 nM. Besides, the concentration for a half-maximal effect (EC50) in assay [1] is below 1 nM.

For the origin of these results see patent US20240228488A1 (TAKEDA PHARMACEUTICAL COMPANY LIMITED, priority 2021, published 2024).
